Experimental data from US20100256199A1, “Crystalline form of an Antimalarial Compound” (Glaxo Group Limited, priority 2007, published 2010).

Assays:
Assay type in all cases: physicochemical
[1] = Competitive ripening experiments between Form 1 and Form 2 (relative thermodynamic stability)
Protocol: Forms 1 and 2 of the compound of Formula (I) are both stable at ambient temperature. Competitive ripening experiments between Form 1 and 2 of the compound of Formula (I) were conducted in i) a mixture of acetone and 1-propanol at 23° C.; ii) in acetone at 10° C. and iii) in acetone at 50° C.

[2] = Stability of the polymorphic forms at ambient temperature
[3] = Hygroscopicity of the crystalline form

| Polymorphic form conversion in competitive ripening experiments ([1]; i) mixture of acetone and 1-propanol at 23° C.; ii) acetone at 10° C.; iii) acetone at 50° C., same outcome in each) | Stability at ambient temperature [2] | Hygroscopic nature [3] | SMILES | Relative thermodynamic stability ([1]; at ambient temperatures, for example at 23° C.) | Relative thermodynamic stability ([1]; between 10° C. and 50° C.) |
| --- | --- | --- | --- | --- | --- |
| converted to Form 2 | stable | – | Cc1[nH]c(CO)c(-c2ccc(Oc3ccc(OC(F)(F)F)cc3)cc2)c(=O)c1Cl [Form 1, 3-chloro-6-(hydroxymethyl)-2-methyl-5-[4-({4-[(trifluoromethyl)oxy]phenyl}oxy)phenyl]-4(1H)-pyridinone] | – | – |
| – | – | non-hygroscopic | Cc1[nH]c(CO)c(-c2ccc(Oc3ccc(OC(F)(F)F)cc3)cc2)c(=O)c1Cl [Form 2, 3-chloro-6-(hydroxymethyl)-2-methyl-5-[4-({4-[(trifluoromethyl)oxy]phenyl}oxy)phenyl]-4(1H)-pyridinone] | thermodynamically more stable than Form 1 | thermodynamically more stable than Form 1 |
